Assay results: US5886011A, “Piperidine derivatives as substance P antagonists” (Hisamitsu Pharmaceutical Co., Inc., priority 1995, dated 1999)
Structures can show the parent of a compound that is named as a salt. Where two headings read alike, the source gives them in different places.

What was measured:
[1] = biological target: T1, Substance P receptor (guinea pig ileum longitudinal muscle) (Cavia porcellus, UniProt P30547); experiment: Receptor-binding test ([125I]SP ligand, guinea pig ileum longitudinal muscle receptor samples); conditions: 10^-8 M compound; [125I]SP 50 pM, 22° C., 20 minutes
T1 construct: ileum was removed and the longitudinal muscle was stripped off; from tissue; host or cells: guinea pig ileum longitudinal muscle, washed membrane pellets
Description: To the longitudinal muscles, 20 times of the wet weight of the buffer solution (1) (50 mM tris-HCl buffer solution containing 2 mM MgCl2 and 0.1 mM phenyl methyl sulfonyl-fluoride, pH 7.4) was added. The mixture was homogenized under ice-cooling and centrifuged at 48,000×G for 15 minutes. After removing the supernatant, the pellets were re-suspended in the buffer solution (1) and centrifuged at 48,000×G for 15 minutes. The buffer solution (2) (50 mM tris.HCl buffer solution containing 10 mM ethylenediaminetetraacetic acid and 300 mM KCl, pH 7.4) was added to the pellets and suspended to be reacted under ice-cooling for 60 minutes. The resulted reaction materials were centrifuged at 48,000×G for 15 minutes. After suspending the pellets in the buffer solution (1) and distributing, the mixture were centrifuged at 48,000×G for 15 minutes. The pellets were stored at -80° C. until used as receptor samples.
Thus obtained receptor samples were suspended in 50 mM tris-HCl buffer solution to be used. As the buffer solution, binding buffer solution (tris.HCl buffer solution containing 0.02% bovine serum albumin, 40 μg/ml bacitracin, 4 μg/ml chymostatin, 4 μg/ml leupeptin and 3 mM MnCl2, pH7.4) was used.

[2] = tested on: Substance P (guinea pig ileum); experiment: Bioassay test: Substance P-induced contraction of guinea pig ileum strips; conditions: 10^-7 M compound; contraction by 10^-8 M Substance P regarded as 100%
Description: B. Bioassay Test […] After exsanguinating guinea pigs (body weight: 500-600 g) deadly, ileum was removed and 2 cm of ileum strips were prepared. In a Tyrode's solution (10 ml, 37° C.) in which air is passed, containing 5.2 μM atropine and 4.1 μM indomethacin, the strips having 0.5 g resting tension was suspended, and contractions of muscle were recorded on a recording device (RTA-1200, manufactured by Nihon Kohden) via an isotonic transducer (TB-612T, manufactured by Nihon Kohden). Using three specimens per one group, effects of the subject drugs on the muscle contraction caused by 10^-8 M Substance P were determined.

Substance P = experiment: Antagonism test on Substance P-induced airway edema; format: in vivo, guinea pig (hartley male); conditions: Cavia porcellus, po, read-out: Inhibition Rate (airway edema, dye transudated into trachea and main bronchi)
Description: C. Antagonism Test on Substance P-induced Airway Edema
20 mg/kg of Evans' Blue and 1 nm/kg Substance P containing 200 I.U./kg of heparin were administered intravenously to hartley male guinea pigs in order to induce airway edema. After ten minutes, the guinea pigs were exsanguinated deadly. The amounts of the dye transudated into trachea and main bronchi were determined. 1 mg/kg of the subject compounds were administered orally at thirty minutes before the induction. […] Further, for comparison, the following compounds A and B were used.

cisplatin-induced emesis = experiment: Anti-emetic effect against cisplatin-induced emesis; format: in vivo, ferret (male); conditions: 1 mg/kg orally just after cisplatin (10 mg/kg i.p.); compared to the control group
Description: D. Anti-emetic Effect against Cisplatin-induced Emesis
The test was carried out using male ferret (approx. 1.5 kg.). Emesis was induced by intraperitoneal administration of cisplatin (10 mg/kg). 1 mg/kg of the subject compounds were administered orally just after the cisplatin administration. The results will be shown in Table 3 as the inhibition rates compared to the control group, using the number of vomits as indexes. Further, for comparisons, the following compounds A and C were used.

[3] = 1 mg/kg orally, thirty minutes before induction, compared to the control group

T1 sequence (P30547 whole entry): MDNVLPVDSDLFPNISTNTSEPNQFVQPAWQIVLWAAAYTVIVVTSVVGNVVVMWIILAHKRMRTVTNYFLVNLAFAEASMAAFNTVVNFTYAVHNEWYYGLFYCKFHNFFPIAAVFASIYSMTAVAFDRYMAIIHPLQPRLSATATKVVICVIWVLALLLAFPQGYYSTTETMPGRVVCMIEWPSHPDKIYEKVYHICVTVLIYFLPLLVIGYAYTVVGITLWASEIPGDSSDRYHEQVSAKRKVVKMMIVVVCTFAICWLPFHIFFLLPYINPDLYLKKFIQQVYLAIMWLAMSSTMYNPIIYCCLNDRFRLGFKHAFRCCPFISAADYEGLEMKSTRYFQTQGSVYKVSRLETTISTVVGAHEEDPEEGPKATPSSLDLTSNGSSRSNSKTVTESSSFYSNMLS

In the case of `Cc1cc(CN[C@H]2CCCN[C@H]2c2ccccc2)c2c(c1)CC(C)(C)O2.Cl` [Example 17, (2S,3S)-3-[(2,2,5-trimethyl-2,3-dihydrobenzofuran-7-yl)methyl]amino-2-phenylpiperidine hydrochloride], the inhibition at 0.01 µM [1] was 94.2% and the “Contriction Inhibition” value [2] was 94.6%.
`COc1cc(CN[C@H]2CCCN[C@H]2c2ccccc2)c2c(c1)CC(C)(C)O2` [Example 12, (2S,3S)-3-[(2,2-dimethyl-5-methoxy-2,3-dihydrobenzofuran-7-yl)methyl]amino-2-phenylpiperldine hydrochloride] was tested, and the inhibition at 0.01 µM [1] was 82.2% and the “Contriction Inhibition” value [2] was 43.0%.
`CC1Oc2c(CN[C@H]3CCCN[C@H]3c3ccccc3)cccc2C1C.Cl` (stereo partly drawn) [Example 20, (2S,3S)-3-[(2,3-dimethyl-2,3-dihydrobenzofuran-7-yl)methyl]amino-2-phenylpiperidine hydrochloride] was tested, and the inhibition at 0.01 µM [1] was 65% and the “Contriction Inhibition” value [2] was 38.9%.
For `CC1(C)Cc2cc(S(C)(=O)=O)cc(CN[C@H]3CCCN[C@H]3c3ccccc3)c2O1.Cl` [Example 6, (2S,3S)-3-[(2,2-dimethyl-5-methylsulfonyl-2,3-dihydrobenzofuran-7-yl)methyl]amino-2-phenylpiperidine hydrochloride], the inhibition at 0.01 µM [1] was 74.8% and the “Contriction Inhibition” value [2] was 50.9%.
`Cl.c1ccc([C@@H]2NCCC[C@@H]2NCc2ccc3c(c2)OCCO3)cc1` [Example 19, (2S,3S)-3-(3,4-ethylenedioxybenzyl)amino-2-phenylpiperidine hydrochloride] was tested, and the inhibition at 0.01 µM [1] was 48.7% and the “Contriction Inhibition” value [2] was 22.1%.
For `CC1(C)Cc2cc([N+](=O)[O-])cc(CN[C@H]3CCCN[C@H]3c3ccccc3)c2O1.Cl` [Example 4, (2S,3S)-3-[(2,2-dimethyl-5-nitro-2,3-dihydrobenzofuran-7-yl)methyl]amino-2-phenylpiperidine hydrochloride], the inhibition at 0.01 µM [1] was 89.7% and the “Contriction Inhibition” value [2] was 60.2%.
`CC1Cc2cccc(CN[C@H]3CCCN[C@H]3c3ccccc3)c2O1.Cl` (single isomer, unassigned) [Example 3, hydrochloride] showed an inhibition at 0.01 µM [1] of 96%.
`CC(C)(C)c1cc2c(c(CN[C@H]3CCCN[C@H]3c3ccccc3)c1)OCC2.Cl` [Example 24, (2S,3S)-3-[(5-tert-butyl-2,3-dihydrobenzofuran-7-yl)methyl]amino-2-phenylpiperidine hydrochloride] was tested, and the inhibition at 0.01 µM [1] was 50.3%, the “Contriction Inhibition” value [2] was 69.5% and the inhibition in vivo at 1 mg/kg (Substance P; [3]) was 64%.
With `c1ccc([C@@H]2NCCC[C@@H]2NCc2cccc3c2OCCC3)cc1` [Example 10, (2S,3S)-3-[(3,4-dihydro-1,2-benzopyran-8-yl)methyl]amino-2-phenylpiperidinehydrochloride] the inhibition at 0.01 µM [1] was 86.2% and the “Contriction Inhibition” value [2] was 61.8%.
In the case of `Cl.c1ccc([C@@H]2NCCC[C@@H]2NCc2cc(C3CCCCC3)cc3c2OCC3)cc1` [Example 26, (2S,3S)-3-[(5-cyclohexyl-2,3-dihydrobenzofuran-7-yl)methyl]amino-2-phenylpiperidine hydrochloride], the inhibition at 0.01 µM [1] was 56.4%, the “Contriction Inhibition” value [2] was 62.1% and the inhibition in vivo at 1 mg/kg (Substance P; [3]) was 61%.
`Cl.c1ccc([C@@H]2NCCC[C@@H]2NCc2ccc3c(c2)OCO3)cc1` [Example 9, (2S,3S)-3-(3,4-methylenedioxybenzyl)amino-2-phenylpiperidine hydrochloride] was tested, and the inhibition at 0.01 µM [1] was 36.6% and the “Contriction Inhibition” value [2] was 5.5%.
For `CC1(C)Cc2cc(Cl)cc(CN[C@H]3CCCN[C@H]3c3ccccc3)c2O1.Cl` [Example 11, (2S,3S)-3-[(5-chloro-2,2-dimethyl-2,3-dihydrobenzofuran-7-yl)methyl]amino-2-phenylpiperidine hydrochloride], the inhibition at 0.01 µM [1] was 85.8% and the “Contriction Inhibition” value [2] was 58.2%.
`CC1Cc2cc(S(=O)(=O)N(C)C)cc(CN[C@H]3CCCN[C@H]3c3ccccc3)c2O1` (stereo partly drawn) [Example 8, (2S,3S)-3-[(5-dimethlaminosulfonyl-2-methyl-2,3-dihydrobenzofuran-7-yl)methyl]amino-2-phenylpiperidine hydrochloride] was tested, and the inhibition at 0.01 µM [1] was 92% and the “Contriction Inhibition” value [2] was 85.0%.
For `CC1(C)Cc2cccc(CN[C@H]3CCCN[C@H]3c3ccccc3)c2O1.Cl` [Example 2, (2S,3S)-3-[(2,2-dimethyl-2,3-dihydrobenzofuran-7-yl)methyl]amino-2-phenylpiperidine hydrochloride], the inhibition at 0.01 µM [1] was 74.8% and the “Contriction Inhibition” value [2] was 47.0%.
`CC1Cc2cccc(CN[C@H]3CCCN[C@H]3c3ccccc3)c2O1.Cl` (single isomer, unassigned) [Example 3] was tested, and the “Contriction Inhibition” value [2] was 93.2%.
For `Cc1ccc(CN[C@H]2CCCN[C@H]2c2ccccc2)c2c1CC(C)(C)O2` [Example 16, (2S,3S)-3-[2,2,4-trimethyl-2,3-dihydrobenzofuran-7-yl)methyl]amino-2-phenylpiperidine hydrochloride], the inhibition at 0.01 µM [1] was 82.5% and the “Contriction Inhibition” value [2] was 78.3%.
In the case of `Cl.c1ccc([C@@H]2NCCC[C@@H]2NCc2cccc3c2OCC3)cc1` [Example 13, (2S,3S)-3-[(2,3-dihydrobenzofuran-7-yl)methyl]amino-2-phenylpiperidine hydrochloride], the inhibition at 0.01 µM [1] was 84.7% and the “Contriction Inhibition” value [2] was 47.4%.
For `CSc1cc(CN[C@H]2CCCN[C@H]2c2ccccc2)c2c(c1)CC(C)(C)O2.Cl` [Example 5, (2S,3S)-3-[(2,2-dimethyl-5-methylthio-2,3-dihydrobenzofuran-7-yl)methyl]amino-2-phenylpiperidine hydrochloride], the inhibition at 0.01 µM [1] was 91.8% and the “Contriction Inhibition” value [2] was 80.5%.
`CN(C)S(=O)(=O)c1cc(CN[C@H]2CCCN[C@H]2c2ccccc2)c2c(c1)CC(C)(C)O2.Cl` [Example 7, (2S,3S)-3-[(2,2-dimethyl-5-dimethylaminosulfonyl-2,3-dihydrobenzofuran-7-yl)methyl]amino-2-phenylpiperidine hydrochloride] was tested, and the inhibition at 0.01 µM [1] was 54% and the “Contriction Inhibition” value [2] was 15.0%.
`CC1(C)Cc2c(Cl)ccc(CN[C@H]3CCCN[C@H]3c3ccccc3)c2O1.Cl` [Example 18, (2S,3S)-3-[(4-chloro-2,2-dimethyl-2,3-dihydrobenzofuran-7-yl)methyl]amino-2-phenylpiperidine hydrochloride] was tested, and the inhibition at 0.01 µM [1] was 89.9% and the “Contriction Inhibition” value [2] was 81.2%.
With `COc1cc(CN[C@H]2CCCN[C@H]2c2ccccc2)c2c(c1)CC(C)O2.Cl` (stereo partly drawn) [Example 15, (2S,3S)-3-[(5-methoxy-2-methyl-2,3-dihydrobenzofuran-7-yl)methyl]amino-2-phenylpiperidine hydrochloride] the inhibition at 0.01 µM [1] was 88.1% and the “Contriction Inhibition” value [2] was 75.2%.
With `COc1ccc(OC(F)(F)F)cc1CN[C@H]1CCCN[C@H]1c1ccccc1` [Compound B, (2S,3S)-3-(2-methoxy-5-trifluoromethoxybenzyl)amino-2-phenylpiperidine hydrochloride, reference compound] the inhibition in vivo at 1 mg/kg (Substance P) was 44%.
`COc1ccc(C(C)C)cc1CN[C@@H]1CN2CCC1CC2.Cl` [Compound C, (2S,3S)-N-(5-isopropyl-2-methoxyphenyl)methyl-1-azabicyclo[2,2,2]octane-3-amine hydrochloride, reference compound] was tested, and the “Inhibition Rate (number of vomits)” value (cisplatin-induced emesis) was 10%.
For `CC1Cc2cc(Cl)cc(CN[C@H]3CCCN[C@H]3c3ccccc3)c2O1.Cl` (stereo partly drawn) [Example 14, (2S,3S)-3-[(5-chloro-2-methyl-2,3-dihydrobenzofuran-7-yl)methyl]amino-2-phenylpiperidine hydrochloride], the inhibition at 0.01 µM [1] was 93.5% and the “Contriction Inhibition” value [2] was 92.3%.
With `Cc1ccc(CN[C@H]2CCCN[C@H]2c2ccccc2)c2c1C(C)C(C)O2.Cl` (stereo partly drawn) [Example 21, (2S,3S)-3-[(2,3,4-trimethyl-2,3-dihydrobenzofuran-7-yl)methyl]amino-2-phenylpiperidine hydrochloride] the inhibition at 0.01 µM [1] was 53.1% and the “Contriction Inhibition” value [2] was 13.4%.
